Measurements published in BindingDB's records for doi:10.1016/j.bmc.2008.07.037 (Merck Research Laboratories, 2008).

Assay: Inhibition of glucocorticoid-mediated human MMP1 expression in PMA stimulated A549 cells assessed as MMP1 protein level by ELISA

C[C@H]1C[C@H]2[C@@H]3CCC4=CC(=O)C=C[C@]4(C)[C@@]3(F)[C@@H](O)C[C@]2(C)[C@@]1(OC(=O)NC(C)(C)CC(C)(C)C)C(=O)CO [(8S,9R,10S,11S,13S,14S,16S,17R)-9-fluoro-11-hydroxy-17-(2-hydroxyacetyl)-10,13,16-trimethyl-3-oxo-6,7,8,9,10,11,12,13,14,15,16,17-dodecahydro-3H-cyclopenta[a]phenanthren-17-yl 2,4,4-trimethylpentan-2-ylcarbamate]
EC50: 23.2 nM

C[C@H]1C[C@H]2[C@@H]3CCC4=CC(=O)C=C[C@]4(C)[C@@]3(F)[C@@H](O)C[C@]2(C)[C@@]1(OC(=O)NCCC(C)(C)C)C(=O)CO [(8S,9R,10S,11S,13S,14S,16S,17R)-9-fluoro-11-hydroxy-17-(2-hydroxyacetyl)-10,13,16-trimethyl-3-oxo-6,7,8,9,10,11,12,13,14,15,16,17-dodecahydro-3H-cyclopenta[a]phenanthren-17-yl 3,3-dimethylbutylcarbamate]
EC50: 21 nM

C[C@H]1C[C@H]2[C@@H]3CCC4=CC(=O)C=C[C@]4(C)[C@@]3(F)[C@@H](O)C[C@]2(C)[C@@]1(OC(=O)NC1CCCCC1)C(=O)CO [(8S,9R,10S,11S,13S,14S,16S,17R)-9-fluoro-11-hydroxy-17-(2-hydroxyacetyl)-10,13,16-trimethyl-3-oxo-6,7,8,9,10,11,12,13,14,15,16,17-dodecahydro-3H-cyclopenta[a]phenanthren-17-yl cyclohexylcarbamate]
EC50: 1.3 nM

C[C@H]1C[C@H]2[C@@H]3CCC4=CC(=O)C=C[C@]4(C)[C@@]3(F)[C@@H](O)C[C@]2(C)[C@@]1(OC(=O)NCC(C)(C)C)C(=O)CO [(8S,9R,10S,11S,13S,14S,16S,17R)-9-fluoro-11-hydroxy-17-(2-hydroxyacetyl)-10,13,16-trimethyl-3-oxo-6,7,8,9,10,11,12,13,14,15,16,17-dodecahydro-3H-cyclopenta[a]phenanthren-17-yl neopentylcarbamate]
EC50: 0.1 nM

CCCCCNC(=O)O[C@]1(C(=O)CO)[C@@H](C)C[C@H]2[C@@H]3CCC4=CC(=O)C=C[C@]4(C)[C@@]3(F)[C@@H](O)C[C@@]21C [(8S,9R,10S,11S,13S,14S,16S,17R)-9-fluoro-11-hydroxy-17-(2-hydroxyacetyl)-10,13,16-trimethyl-3-oxo-6,7,8,9,10,11,12,13,14,15,16,17-dodecahydro-3H-cyclopenta[a]phenanthren-17-yl pentylcarbamate]
EC50: 18 nM

CCC(C)NC(=O)O[C@]1(C(=O)CO)[C@@H](C)C[C@H]2[C@@H]3CCC4=CC(=O)C=C[C@]4(C)[C@@]3(F)[C@@H](O)C[C@@]21C (stereo partly drawn) [(8S,9R,10S,11S,13S,14S,16S,17R)-9-fluoro-11-hydroxy-17-(2-hydroxyacetyl)-10,13,16-trimethyl-3-oxo-6,7,8,9,10,11,12,13,14,15,16,17-dodecahydro-3H-cyclopenta[a]phenanthren-17-yl sec-butylcarbamate]
EC50: 0.8 nM

CCC(C)(C)NC(=O)O[C@]1(C(=O)CO)[C@@H](C)C[C@H]2[C@@H]3CCC4=CC(=O)C=C[C@]4(C)[C@@]3(F)[C@@H](O)C[C@@]21C [(8S,9R,10S,11S,13S,14S,16S,17R)-9-fluoro-11-hydroxy-17-(2-hydroxyacetyl)-10,13,16-trimethyl-3-oxo-6,7,8,9,10,11,12,13,14,15,16,17-dodecahydro-3H-cyclopenta[a]phenanthren-17-yl tert-pentylcarbamate]
EC50: 53.3 nM

COC(=O)[C@H](C)NC(=O)O[C@]1(C(=O)CO)[C@@H](C)C[C@H]2[C@@H]3CCC4=CC(=O)C=C[C@]4(C)[C@@]3(F)[C@@H](O)C[C@@]21C [(11beta,16beta)-9-Fluoro-11,21-dihydroxy-16-methyl-3,20-dioxopregna-1,4-dien-17-yl (1S)-1-(methoxycarbonyl)-ethylcarbamate]
EC50: 83 nM

C[C@H](NC(=O)O[C@]1(C(=O)CO)[C@@H](C)C[C@H]2[C@@H]3CCC4=CC(=O)C=C[C@]4(C)[C@@]3(F)[C@@H](O)C[C@@]21C)c1ccccc1 [(11beta,16beta)-9-Fluoro-11,21-dihydroxy-16-methyl-3,20-dioxopregna-1,4-dien-17-yl (1S)-1-phenylethylcarbamate]
EC50: 4.9 nM

C=CCNC(=O)O[C@]1(C(=O)CO)[C@@H](C)C[C@H]2[C@@H]3CCC4=CC(=O)C=C[C@]4(C)[C@@]3(F)[C@@H](O)C[C@@]21C [(11beta,16beta)-9-Fluoro-11,21-dihydroxy-16-methyl-3,20-dioxopregna-1,4-dien-17-yl allylcarbamate]
EC50: 39 nM

CCCCNC(=O)O[C@]1(C(=O)CO)[C@@H](C)C[C@H]2[C@@H]3CCC4=CC(=O)C=C[C@]4(C)[C@@]3(F)[C@@H](O)C[C@@]21C [(11beta,16beta)-9-Fluoro-11,21-dihydroxy-16-methyl-3,20-dioxopregna-1,4-dien-17-yl butylcarbamate]
EC50: 22 nM

C[C@H]1C[C@H]2[C@@H]3CCC4=CC(=O)C=C[C@]4(C)[C@@]3(F)[C@@H](O)C[C@]2(C)[C@@]1(OC(=O)NC1CCCC1)C(=O)CO [(11beta,16beta)-9-Fluoro-11,21-dihydroxy-16-methyl-3,20-dioxopregna-1,4-dien-17-yl cyclopentylcarbamate]
EC50: 2.8 nM

CCNC(=O)O[C@]1(C(=O)CO)[C@@H](C)C[C@H]2[C@@H]3CCC4=CC(=O)C=C[C@]4(C)[C@@]3(F)[C@@H](O)C[C@@]21C [(11beta,16beta)-9-Fluoro-11,21-dihydroxy-16-methyl-3,20-dioxopregna-1,4-dien-17-yl ethylcarbamate]
EC50: 15.9 nM

CC(C)NC(=O)O[C@]1(C(=O)CO)[C@@H](C)C[C@H]2[C@@H]3CCC4=CC(=O)C=C[C@]4(C)[C@@]3(F)[C@@H](O)C[C@@]21C [(11beta,16beta)-9-Fluoro-11,21-dihydroxy-16-methyl-3,20-dioxopregna-1,4-dien-17-yl isopropylcarbamate]
EC50: 1.9 nM

CCCNC(=O)O[C@]1(C(=O)CO)[C@@H](C)C[C@H]2[C@@H]3CCC4=CC(=O)C=C[C@]4(C)[C@@]3(F)[C@@H](O)C[C@@]21C [(11beta,16beta)-9-Fluoro-11,21-dihydroxy-16-methyl-3,20-dioxopregna-1,4-dien-17-yl propylcarbamate]
EC50: 18.7 nM

C[C@H]1C[C@H]2[C@@H]3CCC4=CC(=O)C=C[C@]4(C)[C@@]3(F)[C@@H](O)C[C@]2(C)[C@@]1(OC(=O)NC(C)(C)C)C(=O)CO [(11beta,16beta)-9-Fluoro-11,21-dihydroxy-16-methyl-3,20-dioxopregna-1,4-dien-17-yl tert-butylcarbamate]
EC50: 1.6 nM

C[C@H]1C[C@H]2[C@@H]3CCC4=CC(=O)C=C[C@]4(C)[C@@]3(F)[C@@H](O)C[C@]2(C)[C@@]1(OC(=O)NC12CC3CC(CC(C3)C1)C2)C(=O)CO [Adamantan-1-yl-carbamic acid (8S,9R,10S,11S,13S,14S,16S,17R)-9-fluoro-11-hydroxy-17-(2-hydroxy-acetyl)-10,13,16-trimethyl-3-oxo-6,7,8,9,10,11,12,13,14,15,16,17-dodecahydro-3H-cyclopenta[a]phenanthren-17-yl este]
EC50: 3.4 nM
